Bounds are passed on as bounds.

One assay concerns Melanoma B16 cells. In words: Animal model of metastasis to bone, Melanoma B16 cells transplanted to the left ventricle. Format: in vivo, C57BL/6 mice. As to conditions: oral 1 mg per kg per day. As for the experimental part: The therapeutic effect and inhibitory effect against metastasis in an animal model of metastasis to bone were evaluated in the following manner. Initially, a test animal was anaesthetized with thiamylal, the precordia was disinfected with iodine and 70% ethanol and was incised to 1 cm along with the midline to expose the ribs. The second interspace of the left sternum was needled to a depth of 2 mm with a needle of a tuberculin syringe 30 G. After observing that fresh blood came up into the syringe, cultured tumor cells in an amount of 10^4 cells in 0.1 mL were injected over one minute or longer. At the time when the animal (mouse) was weakened or paralyzed, the mouse was killed with ether anesthesia, and evaluation was conducted (refer to F. Arguello et al.: A Murine Model of Experimental Metastasis to Bone and Bone Marrow. “Cancer Research”: 1988, 48: 6876-6881).
Melanoma B16 cells (10^4/0.1 mL) were transplanted to the left ventricle of 8-week old female C57BL/6 mice (12 mice per group). […] At the time three weeks after the transplantation when the mice were weakened or paralyzed, the mice were killed under inhalation with ether, the target organs were fixed with 10% formalin, and evaluation of tumor metastasis was conducted.

In assay [1] the test system is Human large cell lung carcinoma LC-1 cells. Put plainly: Tumor growth delay in nude mice with human large cell lung carcinoma LC-1. Format: in vivo, BALB/cA-nu/nu mice. The following applies: for Tumor Growth Delay Percentage: total 20 mg per kg. As for the experimental part: As an index of the effect, the tumor growth delay percentage (%) was determined by calculation according to the following equation: Tumor Growth Delay Percentage(%)=(A−B)/B×100 (1)
wherein “A” represents the number of days required for the tumor to increase in its volume as much as 8 times in each cisplatin-administered group; and “B” represents the number of days required for the tumor to increase in its volume as much as 8 times in the control group. In addition, blood urea nitrogen (BUN) was measured as an index of nephrotoxicity.

In assay [2] the test system is Human multiple myeloma U266 cells. In words: Bone metastasis model of human multiple myeloma U266 in NOG mice, serum hIgE level. Format: in vivo, NOD/SCID/γc^null (NOG) mice.
Procedure: The therapeutic and inhibitory effects of combination use with a bisphosphonate against metastasis in an animal model of metastasis to bone were evaluated in the following manner. Human multiple myeloma U266 cells in an amount of 2×10^6 in 0.2 ml were transplanted to NOD/SCID/γc^null (NOG) mice through their tail vein (10 mice per group). […] 21 days after the transplantation, Aredia containing pamidronate, one of bisphosphonates, as an active ingredient was orally administered at a dose of 1 mg per kg per day for consecutive 8 days (Aredia group). […] 29 days after the tumor transplantation, the human IgE (hIgE) level in the serum was measured, and the therapeutic effect against metastasis to bone was determined (refer to Y. Miyakawa et al.: Establishment of a new model of human multiple myeloma using NOD/SCID/γc^null (NOG) mice. “Biochemical and Biophysical Research Communication”: 2004, 313: 258-262).
Assay [3] concerns murine colorectal cancer Colon 26. In words: Liver metastasis model of murine colorectal cancer Colon 26 (spleen transplantation), survival. Format: in vivo, CDF1 mice. The text has this:
When cancer cells are transplanted into the spleen of mice, metastatic cancer is selectively formed in the liver. Use of this model enables various therapeutic experiments in order to control metastasis to liver (refer to MORIKAWA, Kiyoshi, Nude Mouse Spleen Transplantation Method as Human Cancer Liver Metastasis Model, “Oncologia”: 1989, 22(2): p. 100-102, and L. Kopper et al.: Experimental Model for Liver Metastasis Formation Using Lewis Lung Tumor.: “Journal of Cancer Research Clinical Oncology”: 1982, 103: p31-38).
Specifically, a liver metastasis model of murine colorectal cancer Colon 26 was established using 6-week old CDF1 mice. The therapeutic and inhibitory activities were assayed using, as an index, the ratio (life prolongation rate; T/C percentage) of the survival time of a drug-administered group (10 mice per group) to the survival time of a non-drug-administered (control) group (10 mice per group). In the drug-administered group, cisplatin as a platinum complex was dissolved in physiological saline and was orally administered. In the control group, physiological saline alone was orally administered.

Where [4] appears, read: three weeks after transplantation, control 9/10.

Consider `N.N.[Cl][Pt][Cl]` [Cisplatin, cisplatin], for which the “Inhibition of metastasis to bone (in words)” value in the assay on Melanoma B16 cells is given as “significantly inhibits metastasis to bone”. Besides, in the assay with Melanoma B16 cells (three weeks after transplantation, control 0/10), the “Number of mice where metastasis was observed: Vertebral Column, Cervical Region” value is given as 0/10. The “Number of mice where metastasis was observed: Pectoral Region, Breast Bone” value in the assay with Melanoma B16 cells (three weeks after transplantation, control 4/10) is recorded as 2/10. In the assay with Melanoma B16 cells (three weeks after transplantation, control 6/10), the “Number of mice where metastasis was observed: Vertebral Column, Sacral Spine” value is given as 1/10. Also, the “Number of mice where metastasis was observed: Pectoral Region, Blade Bone” value in the assay on Melanoma B16 cells (three weeks after transplantation, control 7/10) is reported as 5/10. Also, in the assay on Melanoma B16 cells (three weeks after transplantation, control 8/10), the “Number of mice where metastasis was observed: Vertebral Column, Lumbar Region” value is 4/10. In the assay with Melanoma B16 cells (setting [4]), the “Number of mice where metastasis was observed: Pectoral Region, Rib” value is 5/10 and the “Number of mice where metastasis was observed: Vertebral Column, Pectoral Region” value was 6/10. The “Tumor Growth Delay Percentage” value in assay [1] (intermittent intravenous administration, 6.67 mg per kg three times every 7 days) is 265%. For the same molecule, the “Growth of cancer (in words)” value in assay [1] (low-dose daily administration) is “inhibits growth of cancer”. For the same molecule, the “Tumor Growth Delay Percentage” value in assay [1] (low-dose daily intravenous administration, 1.33 mg per kg for 5 consecutive days x 3 courses) is above 293%. In addition, in assay [2] (29 days after transplantation, oral 1 mg per kg per day each, cisplatin day 1-28, Aredia day 21-28, control 351.7 ng/mL), the “hIgE Level in serum” value is 210.5 ng/mL. Further, the “Effect on increase in hIgE level due to metastasis to bone (in words)” value in assay [2] (oral 1 mg per kg per day) is “inhibits the increase in hIgE level”. Besides, the “Life prolongation effect against liver metastasis (in words)” value in assay [3] (oral 1 mg per kg per day) is reported as “remarkable life prolongation effect”. For the same molecule, the “Median Survival Time” value in assay [3] (oral 1 mg per kg per day in physiological saline, started one day after transplantation, control 16.0) was found to be 31.0 days. Also, in assay [3] (survival time of drug-administered group to control group, oral 1 mg per kg per day), the “T/C (life prolongation rate)” value worked out at 194%.

The values are drawn from patent US20080069901A1, “Therapeutic Agent for Metastatic Cancer and Cancer Metastasis Inhibitor” (TMRC Co. , Ltd., priority 2004, published 2008).
